# Key:
# human TASK-1 = human TASK-1 (Homo sapiens (Human), UniProt O14649); assay: Inhibition of recombinant TASK-1 in stably transfected CHO cells (voltage-sensitive dye, KCl depolarization); assay type: cell-based; conditions: depolarization by 40 mM potassium chloride
# Description: (§1) B-2. Inhibition of Recombinant TASK-1 and TASK-3 In Vitro
# (§2) The investigations on the inhibition of the recombinant TASK-1 and TASK-3 channels were conducted using stably transfected CHO cells. The compounds according to the invention were tested in this case by application of 40 mM potassium chloride in the presence of a voltage-sensitive dye according to the method described in detail in the following references [Whiteaker et al., Validation of FLIPR membrane potential dye for high-throughput screening of potassium channel modulators, J. Biomol. Screen. 6 (5), 305-312 (2001); Molecular Devices FLIPR Application Note: Measuring membrane potential using the FLIPR® membrane potential assay kit on Fluorometric Imaging Plate Reader (FLIPR®) systems, http://www.moleculardevices.com/reagents-supplies/assay-kits/ion-channels/flipr-membrane-potential-assay-kits]. The activity of the test substances was determined as their ability to inhibit a depolarization induced in the recombinant cells by 40 mM potassium chloride. The concentration which can block half of this depolarization is referred to as IC50.
# human TASK-3 = human TASK-3 (Homo sapiens (Human), UniProt Q9NPC2); assay: Inhibition of recombinant TASK-3 in stably transfected CHO cells (voltage-sensitive dye, KCl depolarization); assay type: cell-based; conditions: depolarization by 40 mM potassium chloride
# Description: as §1, §2
# Sequence of human TASK-3 (Q9NPC2 whole entry): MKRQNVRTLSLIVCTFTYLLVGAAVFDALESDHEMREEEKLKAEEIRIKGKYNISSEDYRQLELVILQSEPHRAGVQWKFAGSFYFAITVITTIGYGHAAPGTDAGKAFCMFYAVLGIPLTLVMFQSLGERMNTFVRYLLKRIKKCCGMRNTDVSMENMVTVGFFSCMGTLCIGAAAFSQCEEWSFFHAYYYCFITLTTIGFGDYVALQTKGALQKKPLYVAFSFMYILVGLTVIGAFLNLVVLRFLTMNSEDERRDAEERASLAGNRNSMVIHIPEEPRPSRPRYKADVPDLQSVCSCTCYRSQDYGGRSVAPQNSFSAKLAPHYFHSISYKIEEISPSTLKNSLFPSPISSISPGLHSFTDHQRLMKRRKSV
# Sequence of human TASK-1 (O14649 whole entry): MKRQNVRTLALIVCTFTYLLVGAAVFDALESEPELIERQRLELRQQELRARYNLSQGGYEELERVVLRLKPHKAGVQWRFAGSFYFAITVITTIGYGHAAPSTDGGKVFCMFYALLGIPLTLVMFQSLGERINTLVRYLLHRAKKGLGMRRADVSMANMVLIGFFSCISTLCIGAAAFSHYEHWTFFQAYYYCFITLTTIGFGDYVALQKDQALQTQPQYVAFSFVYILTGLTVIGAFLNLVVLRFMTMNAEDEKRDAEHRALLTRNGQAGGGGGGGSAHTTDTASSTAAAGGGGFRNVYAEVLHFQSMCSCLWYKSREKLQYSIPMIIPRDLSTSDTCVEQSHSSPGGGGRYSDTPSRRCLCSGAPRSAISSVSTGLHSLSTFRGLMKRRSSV
SMILES,IC50 (human TASK-1),IC50 (human TASK-3)
"CC(C)CNC(=O)N1C2CCC1CN(Cc1c(-c3ccc(Cl)cc3)nc3ncccn13)C2 [Example 101, 3-{[2-(4-Chlorophenyl)imidazo[1,2-a]pyrimidin-3-yl]methyl}-N-isobutyl-3,8-diazabicyclo[3.2.1]octane-8-carboxamide]",19000 nM,510 nM
"O=C(Nc1ccc(SC(F)(F)F)cc1)N1C2CCC1CN(Cc1c(-c3ccc(Cl)cc3)nc3ncccn13)C2 [Example 103, 3-{[2-(4-chlorophenyl)imidazo[1,2-a]pyrimidin-3-yl]methyl}-N-{4-[(trifluoromethyl)sulfanyl]phenyl}-3,8-diazabicyclo[3.2.1]octane-8-carboxamide]",30000 nM,690 nM
"O=C(Nc1cccc(F)c1)N1C2CCC1CN(Cc1c(-c3ccc(Cl)cc3)nc3ncccn13)C2 [Example 104, 3-{[2-(4-chlorophenyl)imidazo[1,2-a]pyrimidin-3-yl]methyl}-N-(3-fluorophenyl)-3,8-diazabicyclo[3.2.1]octane-8-carboxamide]",19000 nM,460 nM
"O=C(Nc1ccc(Cl)cc1C(F)(F)F)N1C2CCC1CN(Cc1c(-c3ccc(Cl)cc3)nc3ncccn13)C2 [Example 106, 3-{[2-(4-chlorophenyl)imidazo[1,2-a]pyrimidin-3-yl]methyl}-N-[4-chloro-2-(trifluoromethyl)phenyl]-3,8-diazabicyclo[3.2.1]octane-8-carboxamide]",30000 nM,89 nM
"Cc1ccccc1CNC(=O)N1C2CCC1CN(Cc1c(-c3ccc(Cl)cc3)nc3ncccn13)C2 [Example 107, 3-{[2-(4-chlorophenyl)imidazo[1,2-a]pyrimidin-3-yl]methyl}-N-(2-methylbenzyl)-3,8-diazabicyclo[3.2.1]octane-8-carboxamide]",30000 nM,750 nM
"CN(C(=O)N1C2CCC1CN(Cc1c(-c3ccc(Cl)cc3)nc3ncccn13)C2)c1ccccc1 [Example 108, 3-{[2-(4-chlorophenyl)imidazo[1,2-a]pyrimidin-3-yl]methyl}-N-methyl-N-phenyl-3,8-diazabicyclo[3.2.1]octane-8-carboxamide]",7000 nM,90 nM
"CCN(CC)C(=O)N1C2CCC1CN(Cc1c(-c3ccc(Cl)cc3)nc3ncccn13)C2 [Example 109, 3-{[2-(4-chlorophenyl)imidazo[1,2-a]pyrimidin-3-yl]methyl}-N,N-diethyl-3,8-diazabicyclo[3.2.1]octane-8-carboxamide]",24 nM,1.5 nM
"O=C(N1CCOCC1)N1C2CCC1CN(Cc1c(-c3ccc(Cl)cc3)nc3ncccn13)C2 [Example 110, (3-{[2-(4-chlorophenyl)imidazo[1,2-a]pyrimidin-3-yl]methyl}-3,8-diazabicyclo[3.2.1]oct-8-yl)(morpholin-4-yl)methanone]",13000 nM,230 nM
"CC(C)N(C(=O)N1C2CCC1CN(Cc1c(-c3ccc(Cl)cc3)nc3ncccn13)C2)C(C)C [Example 111, 3-{[2-(4-chlorophenyl)imidazo[1,2-a]pyrimidin-3-yl]methyl}-N,N-diisopropyl-3,8-diazabicyclo[3.2.1]octane-8-carboxamide]",6300 nM,290 nM
"CCN(C(=O)N1C2CCC1CN(Cc1c(-c3ccc(Cl)cc3)nc3ncccn13)C2)C1CCCCC1 [Example 112, 3-{[2-(4-chlorophenyl)imidazo[1,2-a]pyrimidin-3-yl]methyl}-N-cyclohexyl-N-ethyl-3,8-diazabicyclo[3.2.1]octane-8-carboxamide]",15000 nM,130 nM
"O=C(N1CCCC1)N1C2CCC1CN(Cc1c(-c3ccc(Cl)cc3)nc3ncccn13)C2 [Example 113, (3-{[2-(4-chlorophenyl)imidazo[1,2-a]pyrimidin-3-yl]methyl}-3,8-diazabicyclo[3.2.1]oct-8-yl)(pyrrolidin-1-yl)methanone]",1100 nM,62 nM
"CCN(C(=O)N1C2CCC1CN(Cc1c(-c3ccc(Cl)cc3)nc3ncccn13)C2)c1ccccc1 [Example 114, 3-{[2-(4-chlorophenyl)imidazo[1,2-a]pyrimidin-3-yl]methyl}-N-ethyl-N-phenyl-3,8-diazabicyclo[3.2.1]octane-8-carboxamide]",6700 nM,140 nM
"CC(C)N(C)C(=O)N1C2CCC1CN(Cc1c(-c3ccc(Cl)cc3)nc3ncccn13)C2 [Example 115, 3-{[2-(4-chlorophenyl)imidazo[1,2-a]pyrimidin-3-yl]methyl}-N-isopropyl-N-methyl-3,8-diazabicyclo[3.2.1]octane-8-carboxamide]",7400 nM,330 nM
"O=C(N1CCCCC1)N1C2CCC1CN(Cc1c(-c3ccc(Cl)cc3)nc3ncccn13)C2 [Example 116, (3-{[2-(4-chlorophenyl)imidazo[1,2-a]pyrimidin-3-yl]methyl}-3,8-diazabicyclo[3.2.1]oct-8-yl)(piperidin-1-yl)methanone]",2700 nM,65 nM
"CC(C)N(C(=O)N1C2CCC1CN(Cc1c(-c3ccc(Cl)cc3)nc3ncccn13)C2)c1ccc(Cl)cc1 [Example 118, N-(4-chlorophenyl)-3-{[2-(4-chlorophenyl)imidazo[1,2-a]pyrimidin-3-yl]methyl}-N-isopropyl-3,8-diazabicyclo[3.2.1]octane-8-carboxamide]",19000 nM,220 nM
"CN(C)C(=O)N1C2CCC1CN(Cc1c(-c3ccc(Cl)cc3)nc3ncccn13)C2 [Example 119, 3-{[2-(4-chlorophenyl)imidazo[1,2-a]pyrimidin-3-yl]methyl}-N,N-dimethyl-3,8-diazabicyclo[3.2.1]octane-8-carboxamide]",5300 nM,210 nM
"CCOc1ccc(N(C)C(=O)N2C3CCC2CN(Cc2c(-c4ccc(Cl)cc4)nc4ncccn24)C3)cc1 [Example 120, 3-{[2-(4-chlorophenyl)imidazo[1,2-a]pyrimidin-3-yl]methyl}-N-(4-ethoxyphenyl)-N-methyl-3,8-diazabicyclo[3.2.1]octane-8-carboxamide]",15000 nM,230 nM
"COc1cccc(CN(C)C(=O)N2C3CCC2CN(Cc2c(-c4ccc(Cl)cc4)nc4ncccn24)C3)c1 [Example 121, 3-{[2-(4-chlorophenyl)imidazo[1,2-a]pyrimidin-3-yl]methyl}-N-(3-methoxybenzyl)-N-methyl-3,8-diazabicyclo[3.2.1]octane-8-carboxamide]",12000 nM,120 nM
"O=C(N1CCSCC1)N1C2CCC1CN(Cc1c(-c3ccc(Cl)cc3)nc3ncccn13)C2 [Example 122, (3-{[2-(4-Chlorophenyl)imidazo[1,2-a]pyrimidin-3-yl]methyl}-3,8-diazabicyclo[3.2.1]oct-8-yl)(thiomorpholin-4-yl)methanone]",5000 nM,120 nM
"COC(=O)N1C2CCC1CN(Cc1c(-c3ccc(Cl)cc3)nc3ncccn13)C2 [Example 123, methyl 3-{[2-(4-chlorophenyl)imidazo[1,2-a]pyrimidin-3-yl]methyl}-3,8-diazabicyclo[3.2.1]octane-8-carboxylate]",14000 nM,230 nM
"CCOC(=O)N1C2CCC1CN(Cc1c(-c3ccc(Cl)cc3)nc3ncccn13)C2 [Example 124, ethyl 3-{[2-(4-chlorophenyl)imidazo[1,2-a]pyrimidin-3-yl]methyl}-3,8-diazabicyclo[3.2.1]octane-8-carboxylate]",790 nM,17 nM
"O=C(OC1CCCC1)N1C2CCC1CN(Cc1c(-c3ccc(Cl)cc3)nc3ncccn13)C2 [Example 125, cyclopentyl 3-{[2-(4-chlorophenyl)imidazo[1,2-a]pyrimidin-3-yl]methyl}-3,8-diazabicyclo[3.2.1]octane-8-carboxylate]",230 nM,27 nM
"CCCOC(=O)N1C2CCC1CN(Cc1c(-c3ccc(Cl)cc3)nc3ncccn13)C2 [Example 126, propyl 3-{[2-(4-chlorophenyl)imidazo[1,2-a]pyrimidin-3-yl]methyl}-3,8-diazabicyclo[3.2.1]octane-8-carboxylate]",280 nM,14 nM
"O=C(OC1CCCCC1)N1C2CCC1CN(Cc1c(-c3ccc(Cl)cc3)nc3ncccn13)C2 [Example 128, cyclohexyl 3-{[2-(4-chlorophenyl)imidazo[1,2-a]pyrimidin-3-yl]methyl}-3,8-diazabicyclo[3.2.1]octane-8-carboxylate]",2000 nM,110 nM
"CC(C)c1ccc(-c2nc3ncccn3c2CN2CC3CCC(C2)N3C(=O)OC(C)(C)C)cc1 [Example 130, tert-Butyl 3-{[2-(4-isopropylphenyl)imidazo[1,2-a]pyrimidin-3-yl]methyl}-3,8-diazabicyclo[3.2.1]octane-8-carboxylate]",1700 nM,210 nM
"CC(C)c1ccc(-c2nc3ncccn3c2CN2CC3CCC(C2)N3C(=O)c2ncoc2C2CC2)cc1 [Example 131, (5-Cyclopropyl-1,3-oxazol-4-yl)(3-{[2-(4-isopropylphenyl)imidazo[1,2-a]pyrimidin-3-yl]methyl}-3,8-diazabicyclo[3.2.1]oct-8-yl)methanone]",3500 nM,410 nM
"CC(C)(C)OC(=O)N1C2CCC1CN(Cc1c(-c3ccc(C4CC4)cc3)nc3ncccn13)C2 [Example 132, tert-Butyl 3-{[2-(4-cyclopropylphenyl)imidazo[1,2-a]pyrimidin-3-yl]methyl}-3,8-diazabicyclo[3.2.1]octane-8-carboxylate]",1700 nM,410 nM

# Reference: patent US11098063B2, “Diazabicyclic substituted imidazopyrimidines and their use for the treatment of breathing disorders” (Bayer Aktiengesellschaft, priority 2017, dated 2021)
